Source: patent US10294202B2, “Pyrrolidinones as herbicides” (FMC Corporation, priority 2013, dated 2019)
Like-named read-outs stand apart in the source and are kept apart here.

Key:
barnyardgrass = test: Test A pre-/postemergence herbicide test; format: in vivo, Echinochloa crus-galli; settings: for Barnyardgrass plant response rating: Preemergence, visual rating on 0 to 100 scale (0 no effect, 100 complete control); for pest or weed control at 125 g/ha / pest or weed control at 500 g/ha: Echinochloa crus-galli, 240 h, read-out: Plant response rating, Barnyardgrass
In short: (§1)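 Visual 0–100 ratings (100 = complete control) made about 10 days after treatment, greenhouse-held plants compared with untreated controls. Treatments: postemergence sprays on one- to two-leaf plants (2–10 cm tall) and preemergence directed soil sprays after planting in loam–sand, chemicals formulated in non-phytotoxic solvent containing surfactant.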

giant foxtail = test: Test A pre-/postemergence herbicide test; format: in vivo, Setaria faberii; settings: for Foxtail, Giant plant response rating: Preemergence, visual rating on 0 to 100 scale (0 no effect, 100 complete control); for pest or weed control at 125 g/ha / pest or weed control at 500 g/ha: Setaria faberi, 240 h, read-out: Plant response rating, Foxtail, Giant
In short: as §1

corn = test: Test A pre-/postemergence herbicide test; format: in vivo, Zea mays; settings: for Corn plant response rating: Preemergence, visual rating on 0 to 100 scale (0 no effect, 100 complete control); for Corn plant response rating (crop injury, 0 = no effect, 100 = complete kill) at 125 g/ha / Corn plant response rating (crop injury, 0 = no effect, 100 = complete kill) at 500 g/ha: Zea mays, 240 h
In short: as §1

wheat (winter wheat) = test: Test C pre-/postemergence herbicide test; format: in vivo, Triticum aestivum; settings: Preemergence
Text: (§2) Seeds of plant species selected from blackgrass (Alopecurus myosuroides), ryegrass, Italian (Italian ryegrass, Lolium multiflorum), wheat (winter wheat, Triticum aestivum), galium (catchweed bedstraw, Galium aparine), corn (Zea mays), crabgrass, large (large crabgrass, Digitaria sanguinalis), foxtail, giant (giant foxtail, Setaria faberii), johnsongrass (Sorghum halepense), lambsquarters (Chenopodium album), morningglory (Ipomoea coccinea), nutsedge, yellow (yellow nutsedge, Cyperus esculentus), pigweed (Amaranthus retroflexus), ragweed (common ragweed, Ambrosia elatior), soybean (Glycine max), barnyardgrass (Echinochloa crus-galli), oilseed rape (Brassica napus), waterhemp (common waterhemp, Amaranthus rudis), kochia (Kochia scoparia), oat, wild (wild oat, Avena fatua), surinam grass (Brachiaria decumbens), foxtail, green (green foxtail, Setaria viridis), goosegrass (Eleusine indica), bromegrass, downy (downy bromegrass, Bromus tectorum), nightshade (eastern black nightshade, Solanum ptycanthum), cocklebur (common cocklebur, Xanthium strumarium), cupgrass, woolly (woolly cupgrass, Eriochloa villosa), bermudagrass (Cynodon dactylon), sunflower, (common oilseed sunflower, Helianthus annuus), Russian thistle (Salsola kali) and velvetleaf (Abutilon theophrasti) were planted into a blend of loam soil and sand and treated preemergence with test chemicals formulated in a non-phytotoxic solvent mixture which included a surfactant. At the same time, plants selected from these crop and weed species and also barley (winter barley, Hordeum vulgare), […]), chickweed (common chickweed, Stellaria media), deadnettle (henbit deadnettle, Lamium amplexicaule), and canarygrass (littleseed canarygrass, Phalaris minor) were planted in pots containing Redi-Earth® planting medium (Scotts Company, 14111 Scottslawn Road, Marysville, Ohio 43041) comprising spaghnum peat moss, vermiculite, wetting agent and starter nutrients and treated with postemergence applications of test chemicals formulated in the same manner. Plants ranged in height from 2 to 18 cm (1- to 4-leaf stage) for postemergence treatments. Treated plants and controls were maintained in a greenhouse for 13 to 15 days, after which time all species were compared to controls and visually evaluated. Plant response ratings, summarized in Table C, are based on a scale of 0 to 100 where 0 is no effect and 100 is complete control. A dash (-) response means no test result.

foxtail, giant = test: Test C pre-/postemergence herbicide test; format: in vivo, Setaria faberii; settings: Preemergence
Text: as §2

morningglory = test: Test C pre-/postemergence herbicide test; format: in vivo, Ipomoea coccinea; settings: Preemergence
Text: as §2

nutsedge, yellow = test: Test C pre-/postemergence herbicide test; format: in vivo, Cyperus esculentus; settings: Preemergence
Text: as §2

velvetleaf = test: Test C pre-/postemergence herbicide test; format: in vivo, Abutilon theophrasti; settings: Preemergence
Text: as §2

[1] = Postemergence, 125 g ai/ha, 0 to 100 scale, 0 no effect, 100 complete control
[2] = Postemergence, 500 g ai/ha, 0 to 100 scale (0 no effect, 100 complete control)
[3] = preemergence, 500 g ai/ha, 0 to 100 scale (0 no effect, 100 complete control)
[4] = preemergence, 500 g ai/ha, 0 to 100 scale
[5] = 125 g ai/ha, scale 0 to 100 (0 no effect, 100 complete control)
[6] = 125 g ai/ha, visual rating, 0 to 100 scale, 0 no effect, 100 complete control, approximately 10 days, preemergence
[7] = Postemergence, 125 g ai/ha, 0 to 100 scale, 0 is no effect, 100 is complete control
[8] = preemergence, 500 g ai/ha, 0 to 100 scale, 0 is no effect and 100 is complete control
[9] = post-emergence, Postemergence, 125 g ai/ha, 0 to 100 scale, 0 no effect, 100 complete control
[10] = post-emergence, Postemergence, 500 g ai/ha, 0 to 100 scale (0 no effect, 100 complete control)
[11] = pre-emergence, preemergence, 500 g ai/ha, 0 to 100 scale (0 no effect, 100 complete control)
[12] = pre-emergence, preemergence, 500 g ai/ha, 0 to 100 scale

SMILES | Plant response rating, Barnyardgrass (barnyardgrass; [1]) | Plant response rating, Barnyardgrass (barnyardgrass; [2]) | Barnyardgrass plant response rating (barnyardgrass; 125 g ai/ha) | Plant response rating, Barnyardgrass (barnyardgrass; [3]) | Plant response rating, Foxtail, Giant (giant foxtail; [1]) | Plant response rating, Foxtail, Giant (giant foxtail; [2]) | Foxtail, Giant plant response rating (giant foxtail; 125 g ai/ha) | Plant response rating, Foxtail, Giant (giant foxtail; [4]) | Plant response rating, Corn (corn; [1]) | Plant response rating, Corn (corn; [2]) | Corn plant response rating (corn; 125 g ai/ha) | Plant response rating, Corn (corn; [4]) | pest or weed control at 125 g/ha (barnyardgrass; [9]) | pest or weed control at 500 g/ha (barnyardgrass; [10]) | pest or weed control at 500 g/ha (barnyardgrass; [11]) | pest or weed control at 125 g/ha (giant foxtail; [9]) | pest or weed control at 500 g/ha (giant foxtail; [10]) | pest or weed control at 500 g/ha (giant foxtail; [12]) | Corn plant response rating (crop injury, 0 = no effect, 100 = complete kill) at 125 g/ha (corn; [9]) | Corn plant response rating (crop injury, 0 = no effect, 100 = complete kill) at 500 g/ha (corn; [10]) | also measured
O=C1NCC(c2ccc(F)c(F)c2)C1C(=O)Nc1ccccc1C(F)(F)F (racemic) [Compound 6] | 40 | 80 | 50 | 80 | 70 | 80 | 90 | 90 | 0 | 0 | 0 | 0 |  |  |  |  |  |  |  |  | 
O=C1NCC(c2ccc(Cl)c(Cl)c2)C1C(=O)Nc1ccccc1F (racemic) [Compound 14] | 60 | 80 | 80 | 90 | 60 | 80 | 80 | 90 | 0 | 0 | 0 | 0 |  |  |  |  |  |  |  |  | Plant response rating, Wheat (wheat (winter wheat); 62 g ai/ha, scale 0 to 100): 10; Plant response rating, Wheat (wheat (winter wheat); [5]): 10; Plant response rating, Foxtail, Giant (foxtail, giant; 62 g ai/ha, scale 0 to 100): 85; Plant response rating, Foxtail, Giant (foxtail, giant; [5]): 90; Foxtail, Giant plant response rating (foxtail, giant; 31 g ai/ha, scale 0 to 100 (0 no effect, 100 complete control)): 85; Plant response rating, Foxtail, Giant (foxtail, giant; 250 g ai/ha, scale 0 to 100 (0 no effect, 100 complete control)): 95; Plant response rating, Morningglory (morningglory; 62 g ai/ha, scale 0 to 100): 0; Plant response rating, Morningglory (morningglory; [5]): 0; Plant response rating, Nutsedge, Yellow (nutsedge, yellow; 62 g ai/ha, scale 0 to 100): 0; Plant response rating, Nutsedge, Yellow (nutsedge, yellow; [5]): 0; Plant response rating, Velvetleaf (velvetleaf; 62 g ai/ha, scale 0 to 100): 0; Plant response rating, Velvetleaf (velvetleaf; [5]): 0
O=C1NCC(c2cccc(C(F)F)c2)C1C(=O)Nc1ccccc1F (racemic) [Compound 210] |  |  |  |  |  |  |  |  |  |  |  |  |  |  |  |  |  |  |  |  | Plant response rating, Barnyardgrass (barnyardgrass; [6]): 60; Plant response rating, Barnyardgrass (barnyardgrass; [7]): 80; Barnyardgrass plant response rating (0 to 100 scale, 0 is no effect, 100 is complete control) (barnyardgrass; Postemergence, 500 g ai/ha): 90; Plant response rating, Barnyardgrass (barnyardgrass; [8]): 90; Plant response rating, Foxtail, Giant (giant foxtail; [6]): 80; Plant response rating, Foxtail, Giant (giant foxtail; [7]): 50; Foxtail, Giant plant response rating (0 to 100 scale, 0 is no effect, 100 is complete control) (giant foxtail; Postemergence, 500 g ai/ha): 90; Plant response rating, Foxtail, Giant (giant foxtail; [8]): 90; Plant response rating, Corn (corn; [7]): 0; Corn plant response rating (0 to 100 scale, 0 is no effect, 100 is complete control) (corn; Postemergence, 500 g ai/ha): 60
O=C1NCC(Br)(c2ccccc2)C1C(=O)Nc1ccccc1F (stereo not shown) [Compound 92, 4-bromo-N-(2-fluorophenyl)-2-oxo-4-phenyl-3-pyrrolidinecarboxamide] |  |  | 60 |  |  |  | 0 |  |  |  | 0 |  | 20% | 70% | 90% | 0% | 10% | 90% | 0% | 0% | Corn plant response rating (crop injury, 0 = no effect, 100 = complete kill) at 500 g/ha (corn; [12]): 0%
O=C1NCC(c2ccccc2)C1(Br)C(=O)Nc1ccccc1F (stereo not shown) [Compound 93, 3-bromo-N-(2-fluorophenyl)-2-oxo-4-phenyl-3-pyrrolidinecarboxamide] |  |  | 50 |  |  |  | 80 |  |  |  | 0 |  | 10% | 60% | 90% | 10% | 60% | 90% | 0% | 0% | Corn plant response rating (crop injury, 0 = no effect, 100 = complete kill) at 500 g/ha (corn; [12]): 0%
